From patent publication US10722498B2, “Acetazolamide ophthalmic solution” (INNOVATIVE NANO & MICRO TECHNOLOGIES PVT LTD (INM …, priority 2017, dated 2020)

Columns and labels:
[1] = system: New Zealand white rabbit eyes; assay: Measurement of intraocular pressure in rabbit eyes (tonometry); format: in vivo; conditions: rabbits, oral acetazolamide 12.92 mg/kg
Method: The inhibition of the ocular hypertension was determined by the following protocol: The experiments were performed in new New Zealand white rabbit eyes by using tonometry method. Rabbits were divided into groups; where each group consists of 4 animals. Group 1, Group 2, Group 3, Group 4 and Group 5 of Rabbits are administered with the predetermined concentrations of ophthalmic compositions of Example 1, 2, 3, 4 and 5 respectively. Group 6 of Rabbits are administered with oral acetazolamide 12.92 mg/kg. The intraocular pressure was measured at 0, 0.5, 1, 4, 8, 12 hrs. After 6 hours, one more administration of ophthalmic composition of Example 1 was instilled in Group 1 of Rabbits and the intraocular pressure was measured.
The percentage change in the intraocular pressure is depicted in the following table 1.

[2] = cited from earlier work

Structure (SMILES): CC(=O)Nc1nnc(S(N)(=O)=O)s1 [Oral acetazolamide, acetazolamide]
- percentage change in the intraocular pressure ([1]; 0.5 hrs after administration, 4 per group, eye drops instilled): 18.00%
- percentage change in the intraocular pressure ([1]; 1 hr after administration, eye drops instilled): 14.00%
- percentage change in the intraocular pressure ([1]; 4 hrs after administration, eye drops instilled): 14.00%
- percentage change in the intraocular pressure ([1]; 6 hrs after administration, eye drops instilled): 14.00%
- percentage change in the intraocular pressure ([1]; 8 hrs after administration, Group 1 (Example 1) had a second instillation after 6 hours): 6.00%
- percentage change in the intraocular pressure ([1]; 12 hrs after administration, Group 1 (Example 1) had a second instillation after 6 hours): 6.00%
- solubility in water [2]: very low solubility in water
